Laboratory results published in ChEMBL document CHEMBL4219059, “Synthesis and biological evaluation of cyclopeptide GG-8-6 and its analogues as anti-hepatocellular carcinoma agents” (Bioorg Med Chem, 2018).
Active and inactive are the calls of the source. The rule behind the calls is not given here. Peptide text beside a SMILES is read from it.

Columns and labels:
HepG2 = test: Antiproliferative activity against human HepG2 cells after 24 hrs by MTT assay; format: functional, cell-based; conditions: HepG2, 24 h
SMMC-7721 [1] = test: Antiproliferative activity against human SMMC7721 cells after 24 hrs by MTT assay; format: functional, cell-based; conditions: SMMC-7721, 24 h
SMMC-7721 [2] = test: Cell cycle arrest in human SMMC7721 cells assessed as G2/M phase accumulation at 2.5 uM after 24 hrs by propidium iodide staining based flow cytometry relative to control; format: functional
SMMC-7721 [3] = test: Induction of apoptosis in human SMMC7721 cells assessed as late apoptotic cells at 0.2 uM after 24 hrs by Annexin V-FITC/propidium iodide staining based flow cytometry (reference value: 0.7%); format: functional
SMMC-7721 [4] = test: Induction of apoptosis in human SMMC7721 cells assessed as chromatin condensation at 0.2 uM after 24 hrs by DAPI staining based laser confocal microscopy; format: functional, cell-based
SMMC-7721 [5] = test: Induction of apoptosis in human SMMC7721 cells assessed as early apoptotic cells at 0.2 uM after 24 hrs by Annexin V-FITC/propidium iodide staining based flow cytometry (reference value: 2%); format: functional

IC50 (HepG2)	IC50 (SMMC-7721 [1])	SMILES	further results
31.8 µM	56.1 µM	CC[C@H](C)[C@@H]1NC(=O)[C@@H]2CCCN2C(=O)[C@H](CC(C)C)NC(=O)[C@H](C(C)C)NC(=O)[C@H](CC(C)C)NC(=O)[C@H](C(C)C)NC(=O)[C@H](C)NC(=O)[C@H](CC(C)C)NC(=O)[C@H](CC(C)C)NC1=O (cyclo(AVLVLPILL))	
> 100 µM	> 100 µM	CC[C@H](C)[C@@H]1NC(=O)[C@@H]2CCCN2C(=O)[C@H](CC(C)C)NC(=O)[C@H](C(C)C)NC(=O)[C@H](CC(C)C)NC(=O)[C@H](C(C)C)NC(=O)[C@H](CC(C)C)NC1=O (cyclo(ILVLVLP))	
39.4 µM	48.5 µM	CC[C@H](C)[C@@H]1NC(=O)[C@@H]2CCCN2C(=O)[C@H](C)NC(=O)[C@H](C(C)C)NC(=O)[C@H](CC(C)C)NC(=O)[C@H](C(C)C)NC(=O)[C@H](CC(C)C)NC(=O)[C@H](CC(C)C)NC(=O)[C@H](CC(C)C)NC1=O (cyclo(APILLLVLV))	
		COc1cc([C@@H]2c3cc4c(cc3[C@@H](O[C@@H]3O[C@@H]5CO[C@@H](C)O[C@H]5[C@H](O)[C@H]3O)[C@H]3COC(=O)[C@H]23)OCO4)cc(OC)c1O [ETOPOSIDE]	Activity (SMMC-7721 [2]): 44.9%
		CC(=O)O[C@H]1C(=O)[C@@]2(C)[C@H]([C@H](OC(=O)c3ccccc3)[C@]3(O)C[C@H](OC(=O)[C@H](O)[C@@H](NC(=O)c4ccccc4)c4ccccc4)C(C)=C1C3(C)C)[C@]1(OC(C)=O)CO[C@@H]1C[C@@H]2O [PACLITAXEL]	Activity (SMMC-7721 [3]): 3.4%; Activity (SMMC-7721 [4]): Active; Activity (SMMC-7721 [5]): 54.7 - 56.7%
55.6 µM	36.1 µM	CC(C)C[C@@H]1NC(=O)[C@H](C)NC(=O)[C@@H]2CCCN2C(=O)[C@H](CC(C)C)NC(=O)[C@H](C(C)C)NC(=O)[C@H](CC(C)C)NC(=O)[C@H](C(C)C)NC(=O)[C@H](CC(C)C)NC(=O)[C@H](CC(C)C)NC1=O (cyclo(ALLLVLVLP))	
> 100 µM	> 100 µM	CC[C@H](C)[C@@H]1NC(=O)[C@@H]2CCCN2C(=O)[C@H](C(C)C)NC(=O)[C@H](CC(C)C)NC(=O)[C@H](C(C)C)NC1=O (cyclo(IVLVP))	
